Reference: article PMC3902031 (Bioorganic & medicinal chemistry, 2013)
Several values for one entry are separate records, joined by “and”; a condition that tells them apart may be missing. Equal entries are not always repeated. Where two headings read alike, the source gives them in different places.

Columns and labels:
T. cruzi amastigotes [1] = experiment: T. cruzi amastigote assays; assay type: cell-based, Trypanosoma cruzi
T. cruzi amastigotes [2] = conditions: cited from earlier work
[3] = molecular target: T1, TcFPPS (T. cruzi farnesyl pyrophosphate synthase) (Trypanosoma cruzi, UniProt Q8WS26); conditions: cited from earlier work
T1 sequence (Q8WS26 1-425): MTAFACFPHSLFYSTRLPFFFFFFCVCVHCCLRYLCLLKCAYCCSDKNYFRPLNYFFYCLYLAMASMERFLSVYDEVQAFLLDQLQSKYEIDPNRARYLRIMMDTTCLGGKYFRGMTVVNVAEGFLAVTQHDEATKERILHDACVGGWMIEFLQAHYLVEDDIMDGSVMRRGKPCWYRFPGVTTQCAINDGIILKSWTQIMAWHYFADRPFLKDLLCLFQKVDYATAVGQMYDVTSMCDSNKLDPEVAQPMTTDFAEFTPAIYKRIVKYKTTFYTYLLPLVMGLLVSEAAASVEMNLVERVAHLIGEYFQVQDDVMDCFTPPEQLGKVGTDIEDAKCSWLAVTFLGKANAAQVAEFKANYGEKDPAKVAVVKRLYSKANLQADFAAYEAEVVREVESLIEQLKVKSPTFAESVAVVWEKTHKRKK

[4] = molecular target: T1, TcFPPS (T. cruzi farnesyl pyrophosphate synthase); experiment: TcFPPS enzymatic activity inhibition; assay type: biochemical
T. gondii tachyzoites [5] = experiment: T. gondii tachyzoites assays; assay type: cell-based, Toxoplasma gondii
T. gondii tachyzoites [6] = conditions: positive control; cited from earlier work

## O=C(Cn1ccnc1[N+](=O)[O-])NCc1ccccc1 [Benznidazole, reference compound]
T. cruzi amastigotes [1]
  ED50 T. cruzi amastigotes: 1.44 ± 0.97 µM
T. cruzi amastigotes [2]
  ED50 intracellular T. cruzi proliferation: 2.77 µM

## CCCCCCCCC(F)(P(=O)(O)O)P(=O)(O)O [Compound 10]
T. cruzi amastigotes [2]
  cellular activity against T. cruzi: devoid of cellular activity
[3]
  activity against TcFPPS: devoid

## CCCCCCCCCC(F)(P(=O)(O)O)P(=O)(O)O [Compound 11]
T. cruzi amastigotes [2]
  cellular activity against T. cruzi: devoid of cellular activity
[3]
  activity against TcFPPS: devoid

## CCCCCCNCC(P(=O)(O)O)P(=O)(O)O [Compound 12]
T. cruzi amastigotes [2]
  ED50 against T. cruzi (amastigotes): 0.84 µM

## CCCCCCCCCCCCNCC(P(=O)(O)O)P(=O)(O)O [Compound 14]
T. cruzi amastigotes [2]
  ED50 intracellular T. cruzi proliferation: 0.67 µM

## CCCCCNCC(O)(P(=O)(O)O)P(=O)(O)O [Compound 27, 1-[(n-Pentylamino)ethyl]-1-hydroxy-1,1-bisphosphonic Acid]
T. cruzi amastigotes [1]
  ED50 T. cruzi amastigotes: > 20 µM
[4]
  IC50: > 10 µM
T. gondii tachyzoites [5]
  ED50 T. gondii tachyzoites: > 10 µM

## CCCCCCNCC(O)(P(=O)(O)O)P(=O)(O)O [Compound 28, 1-[(n-Hexylamino)ethyl]-1-hydroxy-1,1-bisphosphonic Acid]
T. cruzi amastigotes [1]
  ED50 T. cruzi amastigotes: > 20 µM
[4]
  IC50: > 10 µM
T. gondii tachyzoites [5]
  ED50 T. gondii tachyzoites: 4.7 µM and 4.68 ± 1.19 µM

## CCCCCCCNCC(O)(P(=O)(O)O)P(=O)(O)O [Compound 29, 1-[(n-Heptylamino)ethyl]-1-hydroxy-1,1-bisphosphonic Acid]
T. cruzi amastigotes [1]
  ED50 T. cruzi amastigotes: > 20 µM
T. gondii tachyzoites [5]
  T. gondii tachyzoites, % at 10 μM (printed in the ED50 column): 0.00% at 10 μM

## CCCCCCCCNCC(O)(P(=O)(O)O)P(=O)(O)O [Compound 30, 1-[(n-Octylamino)ethyl]-1-hydroxy-1,1-bisphosphonic Acid]
T. gondii tachyzoites [5]
  ED50 T. gondii tachyzoites: 2.0 µM and 2.00 ± 0.95 µM

## CCCCCCCCCCNCC(O)(P(=O)(O)O)P(=O)(O)O [Compound 31, 1-[(n-Decylamino)ethyl]-1-hydroxy-1,1-bisphosphonic Acid]
[4]
  IC50: > 10 µM
T. gondii tachyzoites [5]
  T. gondii tachyzoites, % at 10 μM (printed in the ED50 column): 14.9% at 10 μM

## O=P(O)(O)C(O)(Cc1cccnc1)P(=O)(O)O [Risedronate, risedronate]
T. cruzi amastigotes [2]
  ED50 T. cruzi amastigotes: 55.0 ± 5.0[53] μM
T. gondii tachyzoites [6]
  ED50 T. gondii tachyzoites: 2.4 μM and 2.4 ± 0.7[24] μM
